Source: article PMC7071076, “Antibacterial Activity and Pharmacokinetic Profile of a Promising Antibacterial Agent: 22-(2-Amino-phenylsulfanyl)-22-Deoxypleuromutilin” (Molecules, 2020)
Values after ≈ are worked out from the molar mass of the structure shown.

Tests used:
E. coli ATCC 25922 = assay: MIC testing (broth dilution, 96-well plate); format: cell-based; details: Escherichia coli, ATCC25922
Description: (§1) The MIC of amphenmulin against MRSA, Escherichia coli, Salmonella typhimurium, Enterococcus faecalis, and Enterococcus faecium were determined using tiamulin as controls. MIC values were measured by the method of previous work. Staphylococcus aureus ATCC 29213 was used as the quality control bacteria, and the quality control range was referred to the Clinical and Laboratory Standards Institute (CLSI). The bacteria solution was diluted to ~10^6 CFU/mL with Mueller–Hinton (MH) broth for MRSA, Escherichia coli and Salmonella typhimurium while Trypticase Soy Broth for Enterococcus faecalis and Enterococcus faecium. Drugs were dissolved in an aqueous solution of N, N-dimethylformamide (DMF) at a concentration of 2560 µg/mL, and then diluted with broth to prepare working solution (1280 µg/mL). The drug susceptibility testing was performed in 96-well plate. A total of 20 µL of working solution was added into column 1 and well mixed as a 10-fold dilution, following which Serial 2-fold dilutions were prepared to provide concentration ranges of 128–0.0078 µg/mL. Blank broth (no cultures) and bacteria solution (drugs replaced by blank solvent) were set as drug-free controls. Each 96-well plate was cultured at 37 °C for 24 h. The MIC value is the lowest concentration of amphenmulin which inhibits the visible growth of bacteria. The experiment was repeated three times.

E. faecalis ATCC 29212 = assay: MIC testing (broth dilution, 96-well plate); format: cell-based; details: Enterococcus faecalis, ATCC29212
Description: as §1

E. faecium ATCC 35667 = assay: MIC testing (broth dilution, 96-well plate); format: cell-based; details: Enterococcus faecium, ATCC35667
Description: as §1

S. aureus ATCC 29213 = assay: MIC testing (broth dilution, 96-well plate); format: cell-based; details: Staphylococcus aureus, ATCC29213
Description: as §1

[1] = system: S. typhimurium ATCC 14028; assay: MIC testing (broth dilution, 96-well plate); format: cell-based; details: Salmonella enterica
Description: as §1

MRSA ATCC 43300 = assay: Postantibiotic effect (PAE); format: cell-based, Staphylococcus aureus
Description: The PAE was determined with previously methods. MRSA in logarithmic phase was diluted to 10^6 CFU/mL using MH broth as the inoculum. […] The group in which the drug was replaced by 0.9% saline was served as the control. All the samples were incubated at 37 °C for 1 and 2 h. At the end of incubation, the drug was removed by 1000-fold dilution with MH broth which was preheated at 37 °C. After well mixing, the broth was further cultured at 37 °C. 100 µL culture solution was extracted at different time intervals (0, 1, 2, 4, 6, and 8 h). Following a 10-fold dilution, colonies were counted after 20 h of incubation. The kinetic curve was established with the logarithm of the colony number as the ordinate and the time as the abscissa. The PAE was presented in hour and calculated by the equation PAE = TA − TC [40]. TA was defined as the culture time required for the number of MRSA to up to 1 log CFU/mL after the drug removal, and TC was the culture time required for the control group.

Compound C=C[C@]1(C)C[C@@H](OC(=O)CSc2ccccc2N)[C@]2(C)[C@H](C)CC[C@]3(CCC(=O)[C@H]32)[C@@H](C)[C@@H]1O [Amphenmulin, 22-(2-amino-phenylsulfanyl)-22-deoxypleuromutilin] has an MIC (E. coli ATCC 25922) greater than 128 µg/mL, an MIC (E. faecalis ATCC 29212) greater than 128 µg/mL and an MIC (E. faecium ATCC 35667) of 0.125 µg/mL (≈ 0.257 µM). For the same compound, the MIC (S. aureus ATCC 29213) was 0.0156 µg/mL (≈ 0.0321 µM), the MIC [1] was greater than 128 µg/mL and the PAE (MRSA ATCC 43300; 1× MIC, exposure for 1 h) was 0.71 h. It also gave a PAE (MRSA ATCC 43300; 1× MIC, exposure for 2 h) of 1.35 h, a PAE (MRSA ATCC 43300; 4× MIC, exposure for 1 h) of 1.78 h and a PAE (MRSA ATCC 43300; 4× MIC, exposure for 2 h) of 2.83 h.
